In paper doi:10.1101/2023.04.05.535784v2 (bioRxiv, 2023):
Positions of bridges follow the written chain, without caps; N, C: chain ends. Residues, ends and D or L forms follow the SMILES beside them.

Experiments:
[1] = tested on: thrombus formation in the lung; details: mice, oral, three consecutive days
THP-1 cells = details: cited from earlier work

CC(C)C[C@@H]1NC(=O)[C@@H]2CSSC[C@@H]3NC(=O)[C@H](Cc4c[nH]c5ccccc45)NC(=O)[C@H](C)NC(=O)CNC(=O)CNC(=O)[C@H](CO)NC(=O)[C@H](CCCCN)NC(=O)[C@@H](N)CSSC[C@@H]4NC(=O)[C@H](CSSC[C@H](NC(=O)[C@H](Cc5ccccc5)NC(=O)CNC(=O)[C@H](C(C)C)NC1=O)C(=O)N[C@@H](Cc1ccc(O)cc1)C(=O)NCC(=O)N[C@@H]([C@@H](C)O)C(=O)NCC(=O)N[C@H](C(=O)O)CSSC[C@H](NC(=O)[C@H](CC(N)=O)NC(=O)CNC4=O)C(=O)NCC(=O)N2)NC(=O)CNC(=O)[C@H](Cc1c[nH]cn1)NC(=O)[C@@H]1CCCN1C(=O)[C@H](CC(=O)O)NC(=O)[C@H](Cc1ccccc1)NC(=O)CNC3=O [ginsentide TP1] (H-CKSGGAWCGFDPHGCCGNCGCLVGFCYGTGC-OH; disulfide 1-16, 8-21, 15-26, 19-31)
thrombus formation in the lung compared to control, 30 mg/kg [1]: significantly reduced
increase in IL-6, IL-8, IL-10, and TNFα (THP-1 cells): no observable increase
